Results reported in ChEMBL document CHEMBL6078704, “Redesigning Berberines and Sanguinarines to Target Soluble Epoxide Hydrolase for Enhanced Anti-Inflammatory Efficacy” (J Med Chem, 2024).
The source made the active and inactive calls. The calls are words filed in the database; no cut-off is given here.

How the values were obtained:
[1] = test system: HepG2; assay: Cytotoxicity against human HepG2 cells assessed as cell viability at 0.5 to 5 uM measured after 48 hrs by CCK-8 assay; format: toxicity, cell-based; settings: hepg2, 48 h, dose 0.5-5 µM
[2] = test system: HEK-293T; assay: Cytotoxicity against human 293T cells assessed as cell viability at 0.5 to 5 uM measured after 48 hrs by CCK-8 assay; format: toxicity, cell-based; settings: dose 0.5-5 µM
[3] = test system: Mus musculus; assay: Anti-inflammatory activity in carrageen-induced paw edema BALB/c mouse model assessed as inhibition of soft tissue edema and inflammation measured immediately at 20 mg/kg, po measured at 3 hrs; format: functional
[4] = test system: Staphylococcus aureus; assay: Antimicrobial activity against Staphylococcus aureus ATCC 29213 by microbroth dilution method; format: functional
[5] = test system: Staphylococcus aureus; assay: Antimicrobial activity against methicillin-resistant Staphylococcus aureus 19B120 by microbroth dilution method; format: functional
[6] = test system: Mus musculus; assay: Antiinflammatory activity against cerulein-induced acute pancreatitis in CD1 mouse assessed as increase in pancreatic 8,9-EET/DHET ratio at 20 mg/kg, ip pretreated with cerulein followed by compound injection on 30 and 150 mins and measured 6 hrs post cerulein treatment relative to model group; format: functional; settings: time 30-360 min
[7] = test system: Mus musculus; assay: Antiinflammatory activity against cerulein-induced acute pancreatitis in CD1 mouse assessed as increase in pancreatic 14,15-EET/DHET ratio at 20 mg/kg, ip pretreated with cerulein followed by compound injection on 30 and 150 mins and measured 6 hrs post cerulein treatment relative to model group; format: functional; settings: time 30-360 min
[8] = test system: Mus musculus; assay: Antiinflammatory activity against cerulein-induced acute pancreatitis in CD1 mouse assessed as increase in plasma 8,9-EET/DHET ratio at 20 mg/kg, ip pretreated with cerulein followed by compound injection on 30 and 150 mins and measured 6 hrs post cerulein treatment relative to model group; format: functional; settings: time 30-360 min
[9] = test system: Mus musculus; assay: Antiinflammatory activity against cerulein-induced acute pancreatitis in CD1 mouse assessed as increase in plasma 14,15-EET/DHET ratio at 20 mg/kg, ip pretreated with cerulein followed by compound injection on 30 and 150 mins and measured 6 hrs post cerulein treatment relative to model group; format: functional; settings: time 30-360 min
[10] = test system: Mus musculus; assay: Anti-inflammatory activity in cerulein-induced acute pancreatitis in CD1 mouse model assessed as decrease in cerulein-induced pancreatitis by measuring pancreatic histopathology at 20 mg/kg, ip administered 30 and 150 mins post-cerulein treatment measured after 6 hrs post-cerulein treatment by H and E staining based analysis; format: functional, organism-based; settings: time 30-360 min
[11] = test system: Mus musculus; assay: Anti-inflammatory activity in cerulein-induced acute pancreatitis in CD1 mouse model assessed as decrease in plasma TNFalpha level at 20 mg/kg, ip administered 30 and 150 mins post-cerulein treatment measured after 6 hrs post-cerulein treatment by ELISA; format: functional, organism-based
[12] = test system: Mus musculus; assay: Anti-inflammatory activity in cerulein-induced acute pancreatitis in CD1 mouse model assessed as decrease in plasma IL-6 level at 20 mg/kg, ip administered 30 and 150 mins post-cerulein treatment measured after 6 hrs post-cerulein treatment by ELISA; format: functional, organism-based
[13] = test system: Mus musculus; assay: In vivo inhibition sEH activity in cerulein-induced acute pancreatitis in CD1 mouse model assessed as enzyme activity in pancreatic homogenate at 20 mg/kg, ip administered 30 and 150 mins post-cerulein treatment measured after 6 hrs post-cerulein treatment; format: functional, organism-based; settings: time 30-360 min
[14] = Acute toxicity in male BALB/c mouse assessed as physiological changes at 100 mg/kg, po single dose measured for 24 hrs; format: organism-based; settings: in vivo
[15] = Acute toxicity in BALB/c mouse assessed as pathological changes in liver tissue by measuring hemorrhage at 100 mg/kg, po single dose measured for 24 hrs; format: organism-based; settings: in vivo
[16] = Acute toxicity in BALB/c mouse assessed as pathological changes in liver tissue by measuring inflammation at 100 mg/kg, po single dose measured for 24 hrs; format: organism-based; settings: in vivo
[17] = Acute toxicity in BALB/c mouse assessed as pathological changes in liver tissue by measuring necrosis at 100 mg/kg, po single dose measured for 24 hrs; format: organism-based; settings: in vivo
[18] = Acute toxicity in BALB/c mouse assessed as pathological changes in kidney tissue by measuring hemorrhage at 100 mg/kg, po single dose measured for 24 hrs; format: organism-based; settings: in vivo
[19] = Acute toxicity in BALB/c mouse assessed as pathological changes in kidney tissue by measuring inflammation at 100 mg/kg, po single dose measured for 24 hrs; format: organism-based; settings: in vivo
[20] = Acute toxicity in BALB/c mouse assessed as pathological changes in kidney tissue by measuring necrosis at 100 mg/kg, po single dose measured for 24 hrs; format: organism-based; settings: in vivo
[21] = Acute toxicity in female BALB/c mouse assessed as physiological changes at 100 mg/kg, po single dose measured for 24 hrs; format: organism-based; settings: in vivo
[22] = Half life in Sprague-Dawley rat at 5 mg/kg, iv measured up to 24 hrs; format: ADME, organism-based; settings: in vivo
[23] = AUC (0 to 24 hrs) in Sprague-Dawley rat at 5 mg/kg, iv measured up to 24 hrs; format: ADME, organism-based; settings: in vivo
[24] = Clearance in Sprague-Dawley rat at 5 mg/kg, iv measured up to 24 hrs; format: ADME, organism-based; settings: in vivo
[25] = Half life in Sprague-Dawley rat at 20 mg/kg, po measured up to 24 hrs; format: ADME, organism-based; settings: in vivo
[26] = AUC (0 to 24 hrs) in Sprague-Dawley rat at 20 mg/kg, po measured up to 24 hrs; format: ADME, organism-based; settings: in vivo
[27] = Clearance in Sprague-Dawley rat at 20 mg/kg, po measured up to 24 hrs; format: ADME, organism-based; settings: in vivo
[28] = Oral bioavailability in Sprague-Dawley rat at 20 mg/kg measured up to 24 hrs; format: ADME, organism-based; settings: in vivo
[29] = Tmax in Sprague-Dawley rat at 5 mg/kg, iv measured up to 24 hrs; format: ADME, organism-based; settings: in vivo
[30] = Cmax in Sprague-Dawley rat at 5 mg/kg, iv measured up to 24 hrs; format: ADME, organism-based; settings: in vivo
[31] = AUC (0 to infinity) in Sprague-Dawley rat at 5 mg/kg, iv measured up to 24 hrs; format: ADME, organism-based; settings: in vivo
[32] = Volume of distribution (Vz) in Sprague-Dawley rat at 5 mg/kg, iv measured up to 24 hrs; format: ADME, organism-based; settings: in vivo, read-out: Vz
[33] = Tmax in Sprague-Dawley rat at 20 mg/kg, po measured up to 24 hrs; format: ADME, organism-based; settings: in vivo
[34] = Cmax in Sprague-Dawley rat at 20 mg/kg, po measured up to 24 hrs; format: ADME, organism-based; settings: in vivo
[35] = AUC (0 to infinity) in Sprague-Dawley rat at 20 mg/kg, po measured up to 24 hrs; format: ADME, organism-based; settings: in vivo
[36] = Volume of distribution (Vz) in Sprague-Dawley rat at 20 mg/kg, po measured up to 24 hrs; format: ADME, organism-based; settings: in vivo

For `COc1cc2c(cc1OC)[C@H]1Cc3ccc(NC(=O)NCc4ccc(OC(F)(F)F)cc4)cc3CN1CC2`, the Activity [1] was “Non-toxic”, the Activity [2] was “Non-toxic” and the inhibition in vivo at 20 mg/kg [3] was 33%. The MIC [4] was > 64 µg/mL, the MIC [5] was > 64 µg/mL and the “fold change (FC)” value [6] was 5.4. The “fold change (FC)” value [7] was 26, the “fold change (FC)” value [8] was 3.8 and the “fold change (FC)” value [9] was 15.4. The Activity [10] was “Active”, the Activity [11] was “Active” and the Activity [12] was “Active”. The Activity [13] was “Active”, the Activity [14] was “Non-toxic” and the Activity [15] was “Non-toxic”. For the same compound, the Activity [16] was “Non-toxic”, the Activity [17] was “Non-toxic” and the Activity [18] was “Non-toxic”. For the same compound, the Activity [19] was “Non-toxic”, the Activity [20] was “Non-toxic” and the Activity [21] was “Non-toxic”. It also gave a half-life [22] of 6.1 h, an AUC(0-t) at 24 h [23] of 27800 ng·h/mL and a clearance [24] of 2.85 mL/min/kg. The half-life [25] was 7.2 h, the AUC(0-t) at 24 h [26] was 99500 ng·h/mL and the CL/F [27] was 3.03 mL/min/kg. The bioavailability [28] was 89.3%, the Tmax [29] was 4.8 min and the Cmax [30] was 4860 ng/mL. The AUC(0-inf) [31] was 29600 ng·h/mL, the Vd [32] was 1.49 L/kg and the Tmax [33] was 1.67 h. For the same compound, the Cmax [34] was 10300 ng/mL, the AUC(0-inf) [35] was 110000 ng·h/mL and the Vz [36] was 1.889 L/kg.
